19 molecules from patent publication US11639350B2, “Heteroaryldihydropyrimidine derivatives and methods of treating hepatitis B infections” (Janssen Pharmaceutica NV, priority 2018, dated 2023) can be followed below.

Data set [1] is described as follows: Cytotoxicity determination in HepG2.2.15 cells (CCK-8). It is filed as cell-based. To be noted: human, 6 days of compound treatment, CCK-8, highest concentration 100 μM. How it is done: (§1) HBV replication inhibition by the compounds of this invention as well as cytotoxicity determination was determined in cells infected or transfected with HBV, or cells with stably integrated HBV, such as HepG2.2.15 cells (Sells et al. 1987). The method used herein is as follows.
(§2) The HepG2.2.15 cells were seeded into 96-well plate in 2% FBS (Fetal bovine serum) culture medium at the density of 40,000 cells/well and 5,000 cells/well for HBV inhibitory activity and cytotoxicity determination, respectively. After seeding, the cell plates were incubated at 37° C., 5% CO2 overnight. The next day, medium containing compounds were added to treat the cells for 6 days with medium refreshed once in the middle of the treatment. Eight dose points with 3 folds dilution of each compound were adopted and the highest concentration of the compounds was 10 μM and 100 μM for HBV inhibitory activity and cytotoxicity determination, respectively.
After 6 days of compounds treatment, 20 μl CCK-8 (Cell Counting Kit-8 (Tianjin Biolite company)) reagents were added to each well of cytotoxicity assay plates, the plate was incubated at 37° C., 5% CO2 for 2.5 hours and the absorbance at 450 nm wavelength was measured, at the same time the absorbance at 630 nm wavelength was read as reference.
(§3) EC50 and CC50 values are calculated by the GraphPad Prism software and are averages where multiple measurements were made. EC50 values for the other exemplified compounds were either not measured or higher than 1 μM.

A further data set deals with HBV. As to the kind of experiment: HBV inhibitory activity: HBV DNA in the culture medium of HepG2.2.15 cells by q-PCR. Type of data set: cell-based. To be noted: HepG2.2.15 cells, 6 days of compound treatment, HBV DNA in culture medium by q-PCR, highest concentration 10 μM, read-out: EC50. Here is the method:
as §1, §2
The HBV DAN change in the cell culture medium induced by the compounds was measured by q-PCR (quantitative polymerase chain reaction) method. The HBV DNA in the culture medium was extracted using QIAamp 96 DNA Blood Kit according to the manual and then quantified by q-PCR using the primers and probe in the table below: […]
as §3

Setting [2] is: Hepatitis B virus, HepG2.2.15, 144 h.

The structures appear in SMILES notation. Where two headings read alike, the source gives them in different places.

As usually defined, the CC50 is the concentration at which the toxic effect on the cells reaches its halfway point. A higher CC50 goes with better tolerance by the cells. Usually EC50 stands for the concentration at which the effect is half-maximal.

Consider `COC(=O)C1=C(C23CC(NS(=O)(=O)CC(O)CO)(C2)C3)NC(c2nccs2)=NC1c1ccc(F)cc1Cl` (stereo not shown) [Compound 393B, Methyl 4-(2-chloro-4-fluorophenyl)-6-(3-(2,3-dihydroxypropylsulfonamido)bicyclo[1.1.1]pentan-1-yl)-2-(thiazol-2-yl)-1,4-dihydropyrimidine-5-carboxylate], for which, in data set [1], the midpoint of cytotoxicity, the CC50 at 6 days, lay at 85 µM. Besides, the EC50 with HBV (setting [2]) is 100 nM.

In turn, `COC(=O)C1=C(C2CCN(C(=O)CO)CC2)NC(c2nccs2)=NC1c1ccc(F)cc1Cl` (single isomer, unassigned) [Compound 122B, Methyl 4-(2-chloro-4-fluorophenyl)-6-(1-(2-hydroxyacetyl)-piperidin-4-yl)-2-(thiazol-2-yl)-1,4-dihydropyrimidine-5-carboxylate] yielded a CC50 at 6 days in data set [1] of 31.6 µM. In addition, in the data set on HBV (setting [2]), the concentration giving a half-maximal response (EC50) amounted to 57 nM.

In turn, `CCOC(=O)C1=C(C2CCN(S(=O)(=O)C3CC(C(=O)O)C3)CC2)NC(c2nccs2)=NC1c1ccc(F)c(F)c1Br` (stereo in doubt) [Compound 199B, (trans)-3-((4-(6-(2-bromo-3,4-difluorophenyl)-5-(ethoxycarbonyl)-2-(thiazol-2-yl)-3,6-dihydropyrimidin-4-yl)piperidin-1-yl)sulfonyl)cyclobutanecarboxylic Acid] yielded a half-maximal cytotoxic concentration (CC50) at 6 days in data set [1] of 14.2 µM. For the same molecule, in the data set with HBV (setting [2]), the EC50 is < 4.6 nM.

In data set [1], `CCS(=O)(=O)N1CCC(C2=C(C(=O)OC)C(c3ccc(F)cc3Cl)N=C(c3nccs3)N2)CC1` (stereo not shown) [Compound 101, Methyl 4-(2-chloro-4-fluorophenyl)-6-(1-(ethylsulfonyl)piperidin-4-yl)-2-(thiazol-2-yl)-1,4-dihydropyrimidine-5-carboxylate] gave a CC50 at 6 days of 38 µM. For the same molecule, in the data set on HBV (setting [2]), the EC50 stood at 210 nM.

Consider `CCOC(=O)C1=C([C@@H]2CC[C@H](C(=O)O)OC2)NC(c2nccs2)=NC1c1ccc(F)cc1Cl` (single isomer, unassigned) [Compound 265E, (cis)-5-(−6-(2-Chloro-4-fluorophenyl)-5-(ethoxycarbonyl)-2-(thiazol-2-yl)-3,6-dihydropyrimidin-4-yl)tetrahydro-2H-pyran-2-carboxylic Acid], for which the midpoint of cytotoxicity in data set [1], the CC50 at 6 days, lay at 92.3 µM. For the same molecule, the half-maximal effective concentration (EC50) in the data set on HBV was determined as 978 nM.

Regarding `CCOC(=O)C1=C(C2CCN(S(=O)(=O)C[C@H]3CC[C@H](C(=O)O)CC3)CC2)NC(c2nccs2)=NC1c1ccc(F)c(F)c1Cl` (stereo partly drawn) [Compound 424, trans-4-(((4-(6-(2-chloro-3,4-difluorophenyl)-5-(ethoxycarbonyl)-2-(thiazol-2-yl)-3,6-dihydropyrimidin-4-yl)piperidinyl)sulfonyl)methyl)cyclohexane-1-carboxylic Acid], the CC50 at 6 days in data set [1] worked out at 8.2 µM. The EC50 in the data set with HBV (setting [2]) turned out to be 7 nM.

For `COC(=O)C1=C(C2CCN(S(=O)(=O)C[C@H]3CC[C@H](C(=O)O)CC3)CC2)NC(c2nccs2)=NC1c1cccc(F)c1C` (stereo partly drawn) [Compound 444b, (trans)-4-(((4-(6-(3-Fluoro-2-methylphenyl)-5-(methoxycarbonyl)-2-(thiazol-2-yl)-3,6-dihydropyrimidin-4-yl)piperidin-1-yl)sulfonyl)methyl)cyclohexanecarboxylic Acid], the CC50 at 6 days in data set [1] came to 8.3 µM. Moreover, the 50% effective concentration (EC50) with HBV (setting [2]) amounted to 59 nM.

`COC(=O)C1=C(C2CCN(C(C)=O)CC2)NC(c2nccs2)=NC1c1ccc(F)cc1Cl` (stereo not shown) [Compound 2, Methyl 6-(1-acetylpiperidin-4-yl)-4-(2-chloro-4-fluorophenyl)-2-(thiazol-2-yl)-1,4-dihydropyrimidine-5-carboxylate] showed a CC50 at 6 days in data set [1] of 98.4 µM. The EC50 in the data set on HBV (setting [2]) was 232 nM.

For the molecule `CCOC(=O)C1=C(C2CCN(S(=O)(=O)c3cnn(CCCCCC(=O)O)c3)CC2)NC(c2nccs2)=NC1c1ccc(F)c(F)c1Cl` (stereo not shown) [Compound 462, 6-(4-((4-(6-(2-Chloro-3,4-difluorophenyl)-5-(ethoxycarbonyl)-2-(thiazol-2-yl)-3,6-dihydropyrimidin-4-yl)piperidin-1-yl)sulfonyl)-1H-pyrazol-1-yl)hexanoic Acid], the cytotoxic concentration (CC50) at 6 days in data set [1] was 6.6 µM. Moreover, the EC50 in the data set on HBV (setting [2]) was 24 nM.

In turn, `COC(=O)C1=C([C@H]2C[C@@H](C)CO2)NC(c2nccs2)=NC1c1cccc(F)c1Cl` (relative stereo) [Compound 171, (cis)-Methyl 4-(2-chloro-3-fluorophenyl)-6-(4-methyltetrahydrofuran-2-yl)-2-(thiazol-2-yl)-1,4-dihydropyrimidine-5-carboxylate] returned a CC50 at 6 days in data set [1] of 15.5 µM. In the data set with HBV (setting [2]), the 50% effective concentration (EC50) amounted to 124 nM.

Take `COC(=O)C1=C(C2CCN(S(=O)(=O)[C@H]3C[C@@H](C(C)(C)O)C3)CC2)NC(c2nccs2)=NC1c1ccc(F)cc1Cl` (single isomer, unassigned) [Compound 244D, (cis)-Methyl 4-(2-chloro-4-fluorophenyl)-6-(1-((3-(2-hydroxypropan-2-yl)cyclobutyl)sulfonyl)piperidin-4-yl)-2-(thiazol-2-yl)-1,4-dihydropyrimidine-5-carboxylate]: the midpoint of cytotoxicity in data set [1], the CC50 at 6 days, lay at 60 µM. Also, the EC50 in the data set on HBV (setting [2]) was determined as 107 nM.

In data set [1], `COC(=O)C1=C(C2CCCN(S(C)(=O)=O)C2)NC(c2nccs2)=NC1c1cccc(F)c1Cl` (single isomer, unassigned) [Compound 98A, Methyl 4-(2-chloro-3-fluorophenyl)-6-(1-(methylsulfonyl)piperidin-3-yl)-2-(thiazol-2-yl)-1,4-dihydropyrimidine-5-carboxylate] gave a CC50 at 6 days of 11.4 µM. In the data set with HBV (setting [2]), the EC50 amounted to 270 nM.

For `CCOC(=O)C1=C(C2CCN(S(=O)(=O)[C@H]3C[C@H](C(=O)O)C3)CC2)NC(c2nccs2)=NC1c1ccc(F)c(F)c1Cl` (relative stereo) [Compound 370B, (trans)-3-((4-(6-(2-Chloro-3,4-difluorophenyl)-5-(ethoxycarbonyl)-2-(thiazol-2-yl)-3,6-dihydropyrimidin-4-yl)piperidin-1-yl)sulfonyl)cyclobutanecarboxylic Acid], the CC50 at 6 days in data set [1] worked out at 23.2 µM. Also, the EC50 in the data set on HBV (setting [2]) was 4 nM.

On to `COC(=O)C1=C([C@H]2CC[C@H](N(CCO)C(C)=O)CC2)NC(c2nccs2)=NC1c1ccc(F)c(F)c1Cl` (single isomer, unassigned) [Compound 433B, (trans)-Methyl 4-(2-chloro-3,4-difluorophenyl)-6-(4-(N-(2-hydroxyethyl)acetamido)cyclohexyl)-2-(thiazol-2-yl)-1,4-dihydropyrimidine-5-carboxylate], for which the CC50 at 6 days in data set [1] was 17.4 µM. For the same molecule, the 50% effective concentration (EC50) in the data set with HBV (setting [2]) stood at 59 nM.

Molecule `COC(=O)C1=C([C@H]2CC[C@H](CC(=O)O)CC2)NC(c2nccs2)=NC1c1cccc(F)c1Cl` (relative stereo) [Compound 29, 2-(trans-4-(6-(2-Chloro-3-fluorophenyl)-5-(methoxycarbonyl)-2-(thiazol-2-yl)-3,6-dihydropyrimidin-4-yl)cyclohexyl)acetic Acid] had a CC50 at 6 days in data set [1] of 33.6 µM. Further, the 50% effective concentration (EC50) in the data set on HBV (setting [2]) came to 123 nM.

In data set [1], `COCCNS(=O)(=O)[C@H]1CC[C@@H](C2=C(C(=O)OC)C(c3ccc(F)c(F)c3Cl)N=C(c3nccs3)N2)CC1` (single isomer, unassigned) [Compound 359B, (cis)-Methyl 4-(2-chloro-3,4-difluorophenyl)-6-(4-(N-(2-methoxyethyl)sulfamoyl)cyclohexyl)-2-(thiazol-2-yl)-1,4-dihydropyrimidine-5-carboxylate] gave a half-maximal cytotoxic concentration (CC50) at 6 days of 10.5 µM. The EC50 in the data set with HBV (setting [2]) was 55 nM.

In turn, `COC(=O)C1=C(C2CC3CCC(C2)N3S(C)(=O)=O)NC(c2nccs2)=NC1c1cccc(F)c1Cl` (single isomer, unassigned) [Compound 39B, 4-(2-Chloro-3-fluoro-phenyl)-6-(8-methanesulfonyl-8-aza-bicyclo[3.2.1]oct-3-yl)-2-thiazol-2-yl-1,4-dihydro-pyrimidine-5-carboxylic Acid Methyl Ester] showed a CC50 at 6 days in data set [1] of 30.6 µM. Moreover, the 50% effective concentration (EC50) with HBV (setting [2]) amounted to 101 nM.

In data set [1], `CCOC(=O)C1=C(C2CCN(S(=O)(=O)[C@H]3CC[C@H](C(=O)O)CC3)CC2)NC(c2nccs2)=NC1c1ccc(F)c(F)c1Cl` (relative stereo) [Compound 354C, (trans)-4-((4-(6-(2-Chloro-3,4-difluorophenyl)-5-(ethoxycarbonyl)-2-(thiazol-2-yl)-3,6-dihydropyrimidin-4-yl)piperidin-1-yl)sulfonyl)cyclohexane-carboxylic Acid] yielded a CC50 at 6 days of 7.9 µM. For the same molecule, the EC50 with HBV (setting [2]) was found to be 15 nM.

As for `COC(=O)C1=C(C2CCCC(C(=O)O)CC2)NC(c2nccs2)=NC1c1ccc(F)cc1Cl` (single isomer, unassigned) [Compound 95A, 4-(6-(2-Chloro-4-fluorophenyl)-5-(methoxycarbonyl)-2-(thiazol-2-yl)-3,6-dihydropyrimidin-4-yl)cycloheptanecarboxylic Acid], the EC50 in the data set with HBV (setting [2]) amounted to 101 nM.
